Test results reported in paper PMC4521635 (Clinical cancer research : an official journal of the …, 2011).
“Also recorded” adds a separate entry of the source. Like-named read-outs stand apart in the source and are kept apart here.

How the values were obtained:
clinical = format: in vivo, human
[1] = cited from earlier work
[2] = 4-day continuous infusion with cyclophosphamide and carboplatin; cited from earlier work
[3] = Expanded MTD cohort, TIME + HCT
[4] = TIME regimen with autologous HCT
[5] = dose level 1, topotecan 10 mg/m^2, TIME + HCT
[6] = dose level 2, topotecan 15 mg/m^2, TIME + HCT
[7] = dose level 3, topotecan 20 mg/m^2, TIME + HCT
[8] = dose level 4, topotecan 27 mg/m^2, TIME + HCT
[9] = dose level 5, topotecan 36 mg/m^2, TIME + HCT
[10] = dose level 6, topotecan 48 mg/m^2, TIME + HCT
[11] = dose level 7, topotecan 64 mg/m^2, TIME + HCT
[12] = dose level 8, topotecan 85 mg/m^2, TIME + HCT
[13] = median, dose level 7, daily dose 21.3 mg/m^2 for 3 days, day 8, phase I patients
[14] = with paclitaxel and carboplatin

With `CC[C@@]1(O)C(=O)OCc2c1cc1n(c2=O)Cc2cc3c(CN(C)C)c(O)ccc3nc2-1` [topotecan] the “MTD of topotecan (daily dose)” value (3 days, in combination with ifosfamide, mesna, etoposide, followed by autologous HCT) was 21.3 mg/m^2/d, the “Nonrelapse deaths, cause” value [3] was “Arrhythmia (1) and bacterial sepsis (1)” and the “Nonrelapse deaths, number of patients” value [3] was 2 (13%). For the same compound, the dose-limiting toxicity [4] was “Mucositis; also recorded: gastrointestinal toxicity”, the “recommended phase II dose” value [4] was 64 mg/m^2 and the “Cortical function, number of patients with grade 3 or 4” value (“Cortical function, number of patients” below) [5] was 0. For the same compound, the “Enteritis, number of patients with grade 3 or 4” value (from here on “Enteritis, number of patients”) [5] was 0, the “Hematuria, number of patients with grade 3 or 4” value (shortened to “Hematuria, number of patients”) [5] was 0 and the “Mucositis (grade 4), number of patients” value [5] was 1 (25%). For the same compound, the “Nonrelapse deaths, number of patients” value [5] was 0, the “Number of days with grade 4 mucositis, median (range)” value (“Number of days with grade 4 mucositis” below) [5] was 0 (0-1) days and the “Peripheral nerve function, number of patients with grade 3 or 4” value (“Peripheral nerve function, number” below) [5] was 0. For the same compound, the “Pulmonary clinical status, number of patients with grade 3 or 4” value (from here on “Pulmonary clinical status, number”) [5] was 1 (25%), the “Reduction in ejection fraction, number of patients with grade 3 or 4” value (shortened to “Reduction in ejection fraction, number”) [5] was 0 and the “Cortical function, number of patients” value [6] was 1 (17%). The “Enteritis, number of patients” value [6] was 1 (17%), the “Hematuria, number of patients” value [6] was 1 (17%) and the “Mucositis (grade 4), number of patients” value [6] was 2 (33%). The “Nonrelapse deaths, number of patients” value [6] was 0, the “Number of days with grade 4 mucositis” value [6] was 0 (0-10) days and the “Peripheral nerve function, number” value [6] was 1 (17%). For the same compound, the “Pulmonary clinical status, number” value [6] was 1 (17%), the “Reduction in ejection fraction, number” value [6] was 0 and the “Cortical function, number of patients” value [7] was 0. For the same compound, the “Enteritis, number of patients” value [7] was 3 (75%), the “Hematuria, number of patients” value [7] was 1 (25%) and the “Mucositis (grade 4), number of patients” value [7] was 2 (50%). The “Nonrelapse deaths, number of patients” value [7] was 0, the “Number of days with grade 4 mucositis” value [7] was 2.5 (0-6) days and the “Peripheral nerve function, number” value [7] was 0. For the same compound, the “Pulmonary clinical status, number” value [7] was 0, the “Reduction in ejection fraction, number” value [7] was 0 and the “Cortical function, number of patients” value [8] was 1 (20%). The “Enteritis, number of patients” value [8] was 3 (60%), the “Hematuria, number of patients” value [8] was 0 and the “Mucositis (grade 4), number of patients” value [8] was 4 (80%). For the same compound, the “Nonrelapse deaths, number of patients” value [8] was 0, the “Number of days with grade 4 mucositis” value [8] was 2 (0-7) days and the “Peripheral nerve function, number” value [8] was 0. The “Pulmonary clinical status, number” value [8] was 1 (20%), the “Reduction in ejection fraction, number” value [8] was 1 (20%) and the “Cortical function, number of patients” value [9] was 1 (11 %). The “Enteritis, number of patients” value [9] was 4 (44%), the “Hematuria, number of patients” value [9] was 0 and the “Mucositis (grade 4), number of patients” value [9] was 5 (56%). The “Nonrelapse deaths, number of patients” value [9] was 0, the “Number of days with grade 4 mucositis” value [9] was 1 (0-20) days and the “Peripheral nerve function, number” value [9] was 0. For the same compound, the “Pulmonary clinical status, number” value [9] was 0, the “Reduction in ejection fraction, number” value [9] was 0 and the “Cortical function, number of patients” value [10] was 0. The “Enteritis, number of patients” value [10] was 2 (40%), the “Hematuria, number of patients” value [10] was 0 and the “Mucositis (grade 4), number of patients” value [10] was 5 (100%). For the same compound, the “Nonrelapse deaths, number of patients” value [10] was 0, the “Number of days with grade 4 mucositis” value [10] was 5 (1-9) days and the “Peripheral nerve function, number” value [10] was 0. For the same compound, the “Pulmonary clinical status, number” value [10] was 0, the “Reduction in ejection fraction, number” value [10] was 0 and the “Cortical function, number of patients” value [11] was 0. The “Enteritis, number of patients” value [11] was 4 (57%), the “Hematuria, number of patients” value [11] was 1 (14%) and the “Mucositis (grade 4), number of patients” value [11] was 7 (100%). The “Nonrelapse deaths, cause” value [11] was “Fungal infection”, the “Nonrelapse deaths, number of patients” value [11] was 1 (14%) and the “Number of days with grade 4 mucositis” value [11] was 6 (4-11) days. For the same compound, the “Peripheral nerve function, number” value [11] was 1 (14%), the “Pulmonary clinical status, number” value [11] was 0 and the “Reduction in ejection fraction, number” value [11] was 0. The “Cortical function, number of patients” value [12] was 0, the “Enteritis, number of patients” value [12] was 3 (60%) and the “Hematuria, number of patients” value [12] was 1 (20%). For the same compound, the “Mucositis (grade 4), number of patients” value [12] was 4 (80%), the “Nonrelapse deaths, cause” value [12] was “Septic shock” and the “Nonrelapse deaths, number of patients” value [12] was 1 (20%). For the same compound, the “Number of days with grade 4 mucositis” value [12] was 8 (0-12) days, the “Peripheral nerve function, number” value [12] was 0 and the “Pulmonary clinical status, number” value [12] was 0. The “Reduction in ejection fraction, number” value [12] was 1 (20%), the “AUC, Lactone” value (clinical; human, in vivo, 3.3 mg/m2) was 0.26 µM·h and the “AUC, Total” value (clinical; human, in vivo, 3.3 mg/m2) was 0.56 µM·h. The “Cl, Lactone” value (clinical; human, in vivo, 3.3 mg/m2) was 27.95 L/h/m^2, the “Cl, Total” value (clinical; human, in vivo, 3.3 mg/m2) was 12.97 L/h/m^2 and the Cmax (clinical; human, in vivo, 3.3 mg/m2) was 180 nM. For the same compound, the “Cmax, Total” value (clinical; human, in vivo, 3.3 mg/m2) was 180 nM, the “T1/2, Lactone” value (clinical; human, in vivo, 3.3 mg/m2) was 2.6 h and the “T1/2, Total” value (clinical; human, in vivo, 3.3 mg/m2) was 2.7 h. For the same compound, the “Vdss, Lactone” value (clinical; human, in vivo, 3.3 mg/m2) was 56.6 L/m^2, the “Vdss, Total” value (clinical; human, in vivo, 3.3 mg/m2) was 49.2 L/m^2 and the AUC (clinical; human, in vivo, 5 mg/m2) was 0.27 µM·h. The “Cl, Lactone” value (clinical; human, in vivo, 5 mg/m2) was 41.19 L/h/m^2, the “Cl, Total” value (clinical; human, in vivo, 5 mg/m2) was 15.44 L/h/m^2 and the Cmax (clinical; human, in vivo, 5 mg/m2) was 200 nM. The “T1/2, Total” value (clinical; human, in vivo, 5 mg/m2) was 3.0 h, the half-life (clinical; human, in vivo, 5 mg/m2) was 2.7 h and the AUC (clinical; human, in vivo, 6.8 mg/m2) was 0.38 µM·h. For the same compound, the “AUC, Total” value (clinical; human, in vivo, 6.8 mg/m2) was 0.86 µM·h, the “Cl, Lactone” value (clinical; human, in vivo, 6.8 mg/m2) was 39.59 L/h/m^2 and the “Cl, Total” value (clinical; human, in vivo, 6.8 mg/m2) was 17.14 L/h/m^2. For the same compound, the Cmax (clinical; human, in vivo, 6.8 mg/m2) was 230 nM, the “Cmax, Total” value (clinical; human, in vivo, 6.8 mg/m2) was 330 nM and the “T1/2, Total” value (clinical; human, in vivo, 6.8 mg/m2) was 2.6 h. The “Vdss, Lactone” value (clinical; human, in vivo, 6.8 mg/m2) was 113 L/m^2, the “Vdss, Total” value (clinical; human, in vivo, 6.8 mg/m2) was 57.5 L/m^2 and the half-life (clinical; human, in vivo, 6.8 mg/m2) was 3.4 h. The “AUC, Lactone” value (clinical; human, in vivo, 8.9 mg/m2) was 0.70 µM·h, the “AUC, Total” value (clinical; human, in vivo, 8.9 mg/m2) was 1.63 µM·h and the “Cl, Lactone” value (clinical; human, in vivo, 8.9 mg/m2) was 28.1 L/h/m^2. The “Cl, Total” value (clinical; human, in vivo, 8.9 mg/m2) was 12.05 L/h/m^2, the Cmax (clinical; human, in vivo, 8.9 mg/m2) was 480 nM and the “Cmax, Total” value (clinical; human, in vivo, 8.9 mg/m2) was 520 nM. For the same compound, the “T1/2, Lactone” value (clinical; human, in vivo, 8.9 mg/m2) was 3.1 h, the “Vdss, Lactone” value (clinical; human, in vivo, 8.9 mg/m2) was 91.6 L/m^2 and the “Vdss, Total” value (clinical; human, in vivo, 8.9 mg/m2) was 53.7 L/m^2. The “AUC, Lactone” value (clinical; human, in vivo, 12 mg/m2) was 0.88 µM·h, the “AUC, Total” value (clinical; human, in vivo, 12 mg/m2) was 1.86 µM·h and the “Cl, Lactone” value (clinical; human, in vivo, 12 mg/m2) was 30.11 L/h/m^2. The “Cl, Total” value (clinical; human, in vivo, 12 mg/m2) was 16.43 L/h/m^2, the Cmax (clinical; human, in vivo, 12 mg/m2) was 610 nM and the “Cmax, Total” value (clinical; human, in vivo, 12 mg/m2) was 650 nM. For the same compound, the “T1/2, Lactone” value (clinical; human, in vivo, 12 mg/m2) was 3.2 h, the “T1/2, Total” value (clinical; human, in vivo, 12 mg/m2) was 2.9 h and the “Vdss, Lactone” value (clinical; human, in vivo, 12 mg/m2) was 94.4 L/m^2. For the same compound, the “Vdss, Total” value (clinical; human, in vivo, 12 mg/m2) was 53.3 L/m^2, the “AUC, Lactone” value (clinical; human, in vivo, 15.7 mg/m2) was 1.48 µM·h and the “AUC, Total” value (clinical; human, in vivo, 15.7 mg/m2) was 2.77 µM·h. For the same compound, the “Cl, Lactone” value (clinical; human, in vivo, 15.7 mg/m2) was 23.53 L/h/m^2, the “Cl, Total” value (clinical; human, in vivo, 15.7 mg/m2) was 12.62 L/h/m^2 and the Cmax (clinical; human, in vivo, 15.7 mg/m2) was 800 nM. The “Cmax, Total” value (clinical; human, in vivo, 15.7 mg/m2) was 870 nM, the “T1/2, Lactone” value (clinical; human, in vivo, 15.7 mg/m2) was 3.3 h and the “T1/2, Total” value (clinical; human, in vivo, 15.7 mg/m2) was 3.1 h. The “Vdss, Lactone” value (clinical; human, in vivo, 15.7 mg/m2) was 76.6 L/m^2, the “Vdss, Total” value (clinical; human, in vivo, 15.7 mg/m2) was 48.1 L/m^2 and the “T1/2, Lactone” value (clinical; human, in vivo, 21.3 mg/m2) was 2.7 h. For the same compound, the “T1/2, Total” value (clinical; human, in vivo, 21.3 mg/m2) was 2.6 h, the “AUC, Lactone” value (clinical; human, in vivo, 28.4 mg/m2) was 2.40 µM·h and the “AUC, Total” value (clinical; human, in vivo, 28.4 mg/m2) was 5.73 µM·h. For the same compound, the “Cl, Lactone” value (clinical; human, in vivo, 28.4 mg/m2) was 25.77 L/h/m^2, the “Cl, Total” value (clinical; human, in vivo, 28.4 mg/m2) was 10.78 L/h/m^2 and the Cmax (clinical; human, in vivo, 28.4 mg/m2) was 1670 nM. For the same compound, the “Cmax, Total” value (clinical; human, in vivo, 28.4 mg/m2) was 2120 nM, the “T1/2, Total” value (clinical; human, in vivo, 28.4 mg/m2) was 2.4 h and the “Vdss, Lactone” value (clinical; human, in vivo, 28.4 mg/m2) was 81.5 L/m^2. The “Vdss, Total” value (clinical; human, in vivo, 28.4 mg/m2) was 41.1 L/m^2, the “Cl, Lactone” value (clinical; [13]) was 29.10 L/h/m^2 and the “Cl, Total” value (clinical; [13]) was 13.43 L/h/m^2. The “Vdss, Lactone” value (clinical; [13]) was 95.8 L/m^2, the “Vdss, Total” value (clinical; [13]) was 63.9 L/m^2 and the dose-limiting toxicity ([1]; seen at 6 mg/m^2/d, with cyclophosphamide and carboplatin) was “severe stomatitis requiring parenteral nutrition and narcotic administration”. For the same compound, the MTD ([1]; single agent, 72-hour continuous infusion, largest dose 11 mg/m^2) was “not reached”, the dose-limiting toxicity ([1]; single-agent topotecan with hematopoietic cell support) was “diarrhea” and the dose-limiting toxicities [1, 14] was “hemorrhagic stomatitis and prolonged hematopoietic recovery”. The “topotecan dose at which 4 cycles could be given” value [1, 14] was 10 mg/m^2 and the median topotecan clearance [2] was 184 mL/min/m^2.
